Read-outs that look alike come from different tables or passages of the source. Starred links: 1 amine or outer side, 2 acyl side, 3 side chain; linkers in the order of their positions; H or OH if unused. Positions of bridges follow the written chain, without caps; N, C: chain ends. Non-standard residues stand in square brackets, D forms with d. Residues, ends and D or L forms follow the SMILES beside them. *: point of attachment. Orn(4R-OH,5R-OCH2CH2NMe3+) = C[N+](C)(C)CCO[C@@H](N[*:3])[C@H](O)C[C@H](N[*:1])C(=O)[*:2]; pTerphenylCO(4''-OnC5H11) = CCCCCOc1ccc(-c2ccc(-c3ccc(C(=O)*)cc3)cc2)cc1; hTyr(3S-OH,4S-OH) = N[C@H](C(=O)O)[C@H](O)[C@@H](O)c1ccc(O)cc1; Pro(3S-OH,4S-Me) = C[C@H]1CN[C@H](C(=O)O)[C@H]1O; Hyp = O=C(O)[C@@H]1C[C@@H](O)CN1
What was measured:
[1] = Monkey SC local tolerability study; assay type: in vivo, cynomolgus monkey
Method: Previous toxicology studies by the IV route of administration conducted in cynomolgus monkeys have shown CD101 to be safe and well tolerated at up to at least 30 mg/kg, which generates very high systemic exposures upon initial infusion of CD101 into the bloodstream. Therefore, only local tolerability (and PK) of CD101 by SC administration required evaluation. […] Plasma concentrations were then quantified by liquid chromatography with tandem mass spectrometric detection (LC-MS/MS). Bioavailability from SC dosing was calculated by comparing the calculated area under the concentration-time profile (AUC) from SC against the AUC from IV administration of the same dose.
Therefore, a separate study was designed to evaluate the tolerability of a SC dose of CD101 as a highly concentrated solution (100 mg/mL; 30 mg/kg) in two cynomolgus monkeys. […] The drug reaches a maximum concentration within a few hours then remains nearly constant over the course of 10 days.

Candida albicans (R357) = assay: Neutropenic mouse model of azole-resistant candidiasis, kidney CFU; assay type: in vivo; details: CD101 3 mg/kg single IP dose, 72 hours
[2] = Pharmacokinetic profile in mice following a 10-mg/kg subcutaneous dose; assay type: in vivo; details: mouse, plasma, sc
[3] = system: Candida albicans ATCC SC5314; assay: MIC used for free drug plasma concentration over MIC, candidiasis model; assay type: cell-based
C. albicans = assay: In vitro susceptibility testing (CLSI M27-A3), C. albicans; assay type: cell-based; details: Candida albicans, 24 h
Method: Ten clinical Candida strains were used for the in vivo treatment studies, including four C. albicans, three C. glabrata, and three C. parapsilosis strains (Table 15). This group was selected to encompass phenotypic variability in susceptibility to triazoles and echinocandins and based on similar fitness in the animal model as defined by the amount of growth in control animals over 24 h. The organisms were maintained, grown, and quantified on Sabouraud's dextrose agar (SDA) plates.
In vitro susceptibility testing. All isolates were tested in accordance with the standards in CLSI document M27-A3. The MICs were determined visually after 24 h of incubation as the lowest concentration of drug that causes a significant diminution (50%) of growth compared to controls. MICs were determined on three separate occasions in duplicate.

[4] = Single-dose plasma pharmacokinetics in mice, IP; assay type: in vivo, mouse; details: IP doses of 1, 4, 16, and 64 mg/kg
Method: Plasma from groups of three mice per time point (1, 3, 6, 12, 24, 48, and 72-h) was collected. The plasma drug concentrations were determined by liquid chromatography-tandem mass spectrometry. A noncompartmental model was used in the pharmacokinetic analysis. Elimination half-life was calculated by nonlinear least-squares technique. The area under the concentration-time curve (AUC) was calculated by the trapezoidal rule. Pharmacokinetic exposures for doses not directly measured in the PK study were estimated by linear extrapolation for higher and lower dose levels and by interpolation for dose levels within the dose range studied given the linear PK results.

[5] = Protein binding by ultracentrifugation, human plasma; assay type: in vitro ADME
Method: (§1) Concentrations in plasma ranging from 7 to 60 μg/mL were tested and resulting samples were analyzed by LC-MS/MS.

[6] = Protein binding by ultracentrifugation, mouse plasma; assay type: in vitro ADME; details: read-out: percent of bound CD101, mean (protein binding) (converted)
Method: as §1

[7] = Pharmacokinetics in healthy human adults (Phase 1); assay type: in vivo; details: for AUC: human, plasma, free drug, read-out: average 24 h AUC over a 7 day period
From the text: (§2) The in vitro activity of CD101 was previously evaluated as part of the SENTRY international surveillance program using CLSI broth microdilution methodology (M38-A2, M27-A3; Pfaller, et al 2017). […] These susceptibility data were then compared graphically to CD101 plasma concentrations from studies in healthy adults, adjusted for plasma protein binding. Nonclinical efficacy in a murine model of Pneumocystis pneumonia were also considered to evaluate CD101 doses for clinical investigation of antifungal prophylaxis.

Pneumocystis spp. = assay: Murine model of Pneumocystis pneumonia; details: in vivo
From the text: as §2

[8] = In vivo tissue distribution in SD rats after 5 mg/kg IV; details: Sprague-Dawley, rat
Method: The in vitro activity of CD101 was evaluated against 153 A. fumigatus clinical isolates collected as part of the 2014 and 2015 JMI international SENTRY surveillance program. Susceptibility was determined by measuring the minimal effective concentration (MEC) values in accordance with CLSI broth microdilution guidelines (M38-A2). In vivo tissue distribution of CD101 in SD rats (N=3/time up to 5 d) after a 5 mg/kg IV CD101 dose. Plasma/tissue concentrations were measured by LC-MS/MS.

aspergillosis = assay: Human subject with aspergillosis, single oral dose (Example 4); assay type: in vivo; details: single dose of 50 mg-1200 mg acetate salt of CD101, oral formulation
Method: A human subject is diagnosed with aspergillosis using standard diagnostic procedures. The subject receives treatment with a single dose of 50 mg-1200 mg (e.g., 75±25 mg, 100±25 mg, 150±50 mg, 200±50 mg, 250±50 mg, 300±50 mg, 350±50 mg, 400±50 mg, 450±50 mg, 500±100 mg, 600±100 mg, 700±100 mg, 800±100 mg, 900±50 mg, 1000 mg±100 mg, or 1100±100 mg) of the acetate salt of CD101 administered in an oral formulation (e.g., in a pill, capsule, or liquid formulation). No other antifungal treatment is provided to the subject within one to three weeks before or after administration of the single dose CD101 treatment.

[9] = system: A. fumigatus clinical isolates; details: Aspergillus fumigatus clinical isolates; SENTRY, Pfaller, et al 2017; cited from earlier work
[10] = system: Candida albicans clinical isolates; details: SENTRY, Pfaller, et al 2017; cited from earlier work

## CCCCCOc1ccc(-c2ccc(-c3ccc(C(=O)N[C@H]4C[C@@H](O)[C@@H](OCC[N+](C)(C)C)NC(=O)[C@@H]5[C@@H](O)[C@@H](C)CN5C(=O)[C@H]([C@@H](C)O)NC(=O)[C@H]([C@H](O)[C@@H](O)c5ccc(O)cc5)NC(=O)[C@@H]5C[C@@H](O)CN5C(=O)[C@H]([C@@H](C)O)NC4=O)cc3)cc2)cc1 [CD101] ({pTerphenylCO(4''-OnC5H11)}-[Orn(4R-OH,5R-OCH2CH2NMe3+)]T[Hyp][hTyr(3S-OH,4S-OH)]T[Pro(3S-OH,4S-Me)]; lactam 1-C)
[1]; single 30 mg/kg SC (100 mg/mL)
  irritation or local (injection site) adverse toxicity: no sign of irritation or local (injection site) adverse toxicity
[1]; single 30 mg/kg SC, 10 days after administration
  bodyweight or food consumption: no effect on bodyweight or food consumption
Candida albicans (R357)
  reduction in C. albicans CFU compared with vehicle: > 3 log
[2]
  half-life: ~25 h
[2]; read-out: absolute bioavailability
  bioavailability: ~50%
[3]
  MIC: 0.03 µg/mL
C. albicans; C. albicans 98-17
  MIC: 0.06 µg/mL
C. albicans; C. albicans 98-210
  MIC: 0.03 µg/mL
C. albicans; C. albicans 580
  MIC: 0.06 µg/mL
C. albicans; C. albicans K-1, 50% growth diminution
  MIC: 0.06 µg/mL
[4]
  elimination half-life: 29 to 41 h
[4]; mouse, plasma, ip, 64 mg/kg, read-out: elimination half-life
  half-life: 28 to 41 h
[4]; mouse, plasma
  AUC(0-inf): 93.2 to 40500 µg·h/mL
[4]; mouse, plasma, read-out: Peak (Cmax) levels
  Cmax: 2600 to 76700 ng/mL
[5]
  free fraction in human vs mouse plasma: ~3 ×
[5]; human plasma
  percent of bound CD101, mean: 97.4%
[6]
  fraction unbound at 2.5 hr: 0.008
[7]; 200 mg dose
  free drug AUC0-168: 15.4 µg·h/mL
  AUC: ~2.2 µg·h/mL
[7]; 400 mg dose
  free drug AUC0-168: 30.2 µg·h/mL
  AUC: ~4.3 µg·h/mL
[7]; both 400 mg and 200 mg
  time plasma concentrations above the MEC90 for A. fumigatus: 7 days
[7]; single dose of 400 mg, Phase 1 subjects
  mean unbound plasma concentrations relative to MIC90 for C. albicans: above the MIC90 for C. albicans for seven days
Pneumocystis spp.
  human equivalent doses at which Pneumocystis pneumonia was prevented in mice: < 50 mg
[8]; liver, kidney, lung, spleen, read-out: tissue/plasma exposure ratios
  Kp: ~4
[8]; plasma, read-out: t1/2 in plasma (converted)
  half-life: 39 h
[8]; tissues (all tissues studied), read-out: t1/2 in all tissues studied
  half-life: 40 to 77 h
aspergillosis
  aspergillosis infection at follow-up visit: confirmed to be resolved
[9]
  MEC90: 0.015 µg/mL
[10]
  MIC90: 0.06 µg/mL

— US20190307843A1, “SINGLE DOSE METHODS FOR PREVENTING AND TREATING FUNGAL INFECTIONS” (Cidara Therapeutics, Inc., priority 2016, published 2019)
